Source: US11072596B2, “Poly(ADP-ribose) polymerase inhibitor, preparation method and use” (SELECTION BIOSCIENCE LLC, priority 2017, dated 2021)

Tests used:
[1] = biological target: hERG potassium ion channel (Homo sapiens, UniProt Q12809); assay: hERG potassium ion channel inhibitory activity (Qpatch, CHO-hERG cells); settings: for inhibition at 2.5 min, 40 µM: human
Procedure: CHO-hERG cells were cultured in a 175 cm^2 flask, and when the cell density was increased to 60-80%, the medium was removed and washed with 7 mL of PBS (Phosphate Buffered Saline phosphate buffer), and then digested with 3 mL of Detachin.
The single-cell high impedance sealing and the whole-cell mode formation process were all automatically completed by the Qpatch instrument. After obtaining the whole-cell recording mode, the cells were clamped at −80 mV (millivolt). Before giving a 5-second+40 mV depolarization stimulus, a 50 ms-50 mV pre-voltage was first given, repolarized to −50 mV for 5 seconds, and then returned to −80 mV. This voltage stimulation was applied every 15 seconds. After recording for 2 minutes, extracellular fluid was given for 5 minutes, and then the administration process was started. The compound concentration started from the lowest test concentration, and each test concentration was given for 2.5 minutes. […] At least 3 cells were tested at each concentration (n≥3).
The 20 mM compound mother solution was diluted with extracellular fluid, and 5 μL of 20 mM compound mother solution was added to 2495 μL of extracellular solution, diluted 500-fold to 40 μM, and then sequentially performed 3-fold continuous dilution in an extracellular fluid containing 0.2% DMSO to obtain the final concentration to be tested.
The experimental data were analyzed by XLFit software.

[2] = Liver microsomal stability in vitro, dog; assay type: in vitro ADME; settings: for half-life at 1 μM: pH 7.4, dog liver microsomes 0.5 mg protein/mL, 1 μM test compound, 37° C., read-out: Dog T1/2
Procedure: (§1) Evaluation of in vitro liver microsomal stability of the compound of the present disclosure was tested by the following method:
(§2) Buffer: 100 mM potassium phosphate buffer, pH 7.4; […] MgCl2.
(§3) Liver microsomes: human liver microsomes, Corning Cat No. 452117; Rat liver microsomes, Xenotech Cat No. R1000; Mouse liver microsomes, Xenotech Cat No. M1000; Dog liver microsomes, Xenotech Cat No. D1000; Liver microsomes of cynomolgus monkey, Corning Cat No. 452413, the final concentration was 0.5 mg protein/mL.
(§4) 1. Intermediate solution: 5 μL of compound or control in stock solution (10 mM) was diluted with 495 μL of methanol (concentration: 100 μM, 99% MeOH).
(§5) 2. Operating solution: the intermediate solution was diluted […] with 450 μL 100 mM potassium phosphate buffer (concentration: 10 μM, 9.9% MeOH).
(§6) 1. 10 μL of compound or control solution per well was added to all plates (T0, T5, T10, T20, T30, T60, NCF60) except matrix blank.
(§7) 2. Microsome solution was distributed to 96-well plates according to platemap for standby, 680 μL per well, and the mixture of microsome solution and the compound was incubated at 37° C. for about 10 minutes.
(§8) 4. After preheating, NADPH regeneration system was distributed to 96-well plate, 90 μL per well, for standby according to plate map, which was added to each plate to start the reaction, 10 μL per well. The final concentration of each component in the incubation medium includes: 0.5 mg protein/mL microsome, 1 μM test compound, […], 0.99% methanol and 0.01% DMSO.
(§9) 6. The above-prepared stop solution (4° C. cooling) was added to stop the reaction, 300 μL per well.
(§10) 9. During centrifugation, eight new 96-well plates were loaded with 300 μL of HPLC water, and then 100 μL of supernatant was transferred for mixing, followed by LC/MS/MS detection.
(§11) 10. Data analysis: The peak area of the corresponding compound and internal standard was detected by LC-MS/MS, and the T1/2 of the compound was calculated by the following formula: […]

[3] = Liver microsomal stability in vitro, mouse; assay type: in vitro ADME; settings: pH 7.4; mouse liver microsomes 0.5 mg protein/mL, 1 μM test compound, 37° C.; read-out: Mouse T1/2
Procedure: as §1, §2, §3, §4, §5, §6, §7
4. […]
as §11

[4] = Liver microsomal stability in vitro, human; assay type: in vitro ADME; settings: for half-life at 1 μM: pH 7.4, human liver microsomes 0.5 mg protein/mL, 1 μM test compound, 37° C., read-out: Human T1/2
Procedure: as §1, §2, §3, §4, §5, §6, §7, §8, §9, §10, §11

in vivo = assay: in vivo
Procedure: SD rats were used as test animals, and the drug concentrations in plasma at different times after intravenous and intragastric administration of the compounds of examples were determined by LC/MS/MS method(s) to study the pharmacokinetics of the compound in the present disclosure in rats
Healthy adult male SD (Sprague-Dawley) rats, 3 animals per test compound, 6-9 weeks old, weighing 250±50 g, were purchased from Shanghai SLAC Laboratory Animal Co., Ltd.
The appropriate amount of sample was weighed out, 0.5% Methocel/2% tween 80 was added to the final volume, and 2 mg/mL was prepared for intragastric administration.
Each 3 male SD rats of each test compound were taken by intragastric administration at a dosage of 10 mg/kg after fasting overnight.
Blood samples of each animal were collected at different time points 0.083-24 h from jugular vein puncture after administration, K2-EDTA anticoagulation, centrifugation, and blood plasma were collected, frozen at −70° C. until LC/MS/MS analysis.

[5] = male, Sprague-Dawley, rat, in vivo, po, 10 mg/kg
[6] = SD rats, table head: Dose PO (10 mg/kg)
[7] = male, Sprague-Dawley, rat, plasma, po, 10 mg/kg, SD rats, PO 10 mg/kg

hERG potassium ion channel, sequence (Q12809 whole entry): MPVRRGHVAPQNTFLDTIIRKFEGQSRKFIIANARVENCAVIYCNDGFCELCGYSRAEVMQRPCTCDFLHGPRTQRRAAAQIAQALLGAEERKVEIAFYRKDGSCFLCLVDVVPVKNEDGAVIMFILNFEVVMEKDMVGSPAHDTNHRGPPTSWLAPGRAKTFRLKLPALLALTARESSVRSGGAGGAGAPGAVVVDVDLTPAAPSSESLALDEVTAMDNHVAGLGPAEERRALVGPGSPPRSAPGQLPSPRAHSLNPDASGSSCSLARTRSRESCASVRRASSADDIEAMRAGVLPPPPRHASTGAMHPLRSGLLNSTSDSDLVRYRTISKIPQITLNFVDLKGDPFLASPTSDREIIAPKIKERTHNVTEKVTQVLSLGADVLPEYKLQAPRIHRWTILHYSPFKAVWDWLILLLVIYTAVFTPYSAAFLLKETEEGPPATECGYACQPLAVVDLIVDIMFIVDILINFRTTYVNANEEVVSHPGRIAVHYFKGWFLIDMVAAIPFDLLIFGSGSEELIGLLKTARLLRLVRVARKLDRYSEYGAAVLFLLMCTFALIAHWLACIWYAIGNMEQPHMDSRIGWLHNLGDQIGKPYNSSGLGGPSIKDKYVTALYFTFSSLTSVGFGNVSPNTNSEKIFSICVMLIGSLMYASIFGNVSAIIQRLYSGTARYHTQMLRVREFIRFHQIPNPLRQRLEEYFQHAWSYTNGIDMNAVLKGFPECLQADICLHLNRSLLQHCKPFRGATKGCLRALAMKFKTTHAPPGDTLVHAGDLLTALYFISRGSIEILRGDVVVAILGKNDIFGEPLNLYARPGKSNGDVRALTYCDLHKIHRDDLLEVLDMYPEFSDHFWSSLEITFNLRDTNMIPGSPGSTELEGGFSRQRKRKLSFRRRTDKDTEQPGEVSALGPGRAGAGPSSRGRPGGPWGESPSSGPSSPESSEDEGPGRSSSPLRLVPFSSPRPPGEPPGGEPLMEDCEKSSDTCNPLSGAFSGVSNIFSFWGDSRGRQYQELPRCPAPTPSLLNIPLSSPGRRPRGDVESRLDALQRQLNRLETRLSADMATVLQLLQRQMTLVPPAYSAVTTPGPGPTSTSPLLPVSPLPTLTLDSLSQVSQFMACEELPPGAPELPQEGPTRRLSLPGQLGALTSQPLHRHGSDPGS

| metabolic stability in dog liver microsomes, in words ([2]; dog liver microsomes) | metabolic stability in human liver microsomes, in words ([4]; human liver microsomes) | F (in vivo; [5]) [%] | T1/2 (in vivo; [5]) [h] | AUC (in vivo; [5]) [ng·h/mL] | MRT (in vivo; [5]) [h] | SMILES | IC50 [1] [µM] | inhibition at 2.5 min, 40 µM [1] [%] | half-life at 1 μM [2] [min] | half-life at 1 μM [3] [min] | half-life at 1 μM [4] [min] | inhibition at 2.5 min, 40 µM ([1]; CHO cells that express hERG (CHO-hERG)) [%] | F (in vivo; SD rats, PO 10 mg/kg) [%] | CL (in vivo; [6]) [mL/min/kg] | Vdss (in vivo; [6]) [L/kg] | AUC (in vivo; [7]) [ng·h/mL] | Cmax (in vivo; male, Sprague-Dawley, rat, plasma, po, 10 mg/kg, Cmax, SD rats, PO 10 mg/kg) [ng/mL] | MRT (in vivo; [7]) [h] | half-life (in vivo; male, Sprague-Dawley, rat, plasma, po, 10 mg/kg, T1/2, SD rats, PO 10 mg/kg) [min] |
| --- | --- | --- | --- | --- | --- | --- | --- | --- | --- | --- | --- | --- | --- | --- | --- | --- | --- | --- | --- |
| excellent metabolic stability | excellent metabolic stability | 49.7 | 16.0 | 3060 | 7.12 | NC(=O)c1cccc2cn(-c3ccc([C@]4(F)CCCNC4)cc3)nc12 (single isomer, unassigned) [Example 23, (R or S)-2-(4-(3-fluoropiperidin-3-yl)phenyl)-2H-indazole-7-carboxamide] | > 40 | 29.8 | 20.3 | 61.3 | > 145 |  |  |  |  |  |  |  |  |
|  |  |  |  |  |  | NC(=O)c1cccc2cn(-c3ccc([C@@H]4CCCNC4)cc3)nc12 [Niraparib, reference compound] | 39.6 |  | 22.6 | 110 | > 145 | 50.4 | 65.0 | 28.7 | 8.18 | 4540 | 509 | 8.59 | 204 |
